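Cells were grown in 96-well plates and exposed to each compound for 48 hours at five concentrations; endpoints were interpolated linearly between bracketing concentrations, or set to the highest concentration if not reached. At the GI50, growth is halved.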 Activity calls are given as the source filed them. No stated cut-off is given here; in the data, active = GI50 up to about 1.1 µM and inactive = higher.
What was measured:
Experiment in all cases: DTP human tumour cell line panel, 48 h
SF-295 = tested on: SF-295
HOP-92 = tested on: HOP-92
LOX IMVI = tested on: LOX IMVI
Hs-578T = tested on: Hs-578T
EKVX = tested on: EKVX
NCI-H23 = tested on: NCI-H23
MDA-MB-435 = tested on: MDA-MB-435
T47D = tested on: T47D
OVCAR-5 = tested on: OVCAR-5
A549 = tested on: A549
SF-268 = tested on: SF-268
BT-549 = tested on: BT-549
KM12 = tested on: KM12
SK-MEL-2 = tested on: SK-MEL-2
SR = tested on: SR
OVCAR-4 = tested on: OVCAR-4
HOP-62 = tested on: HOP-62
UACC-257 = tested on: UACC-257
IGROV-1 = tested on: IGROV-1
MDA-MB-231 = tested on: MDA-MB-231
SN12C = tested on: SN12C
SK-MEL-5 = tested on: SK-MEL-5
Malme-3M = tested on: Malme-3M
CAKI-1 = tested on: CAKI-1
RXF 393 = tested on: RXF 393
MOLT-4 = tested on: MOLT-4
PC-3 = tested on: PC-3
NCI/ADR-RES = tested on: NCI/ADR-RES
SNB-75 = tested on: SNB-75
NCI-H226 = tested on: NCI-H226
K562 = tested on: K562
TK-10 = tested on: TK-10
UACC-62 = tested on: UACC-62
U-251 = tested on: U-251
HT-29 = tested on: HT-29
ACHN = tested on: ACHN
HCC 2998 = tested on: HCC 2998
SW-620 = tested on: SW-620
UO-31 = tested on: UO-31
M14 = tested on: M14
SNB-19 = tested on: SNB-19
786-0 = tested on: 786-0
NCI-H460 = tested on: NCI-H460
NCI-H522 = tested on: NCI-H522
HCT-116 = tested on: HCT-116
HCT-15 = tested on: HCT-15
OVCAR-3 = tested on: OVCAR-3
DU-145 = tested on: DU-145
A498 = tested on: A498
SK-MEL-28 = tested on: SK-MEL-28
CCRF-CEM = tested on: CCRF-CEM
HL-60 = tested on: HL-60
RPMI-8226 = tested on: RPMI-8226
SK-OV-3 = tested on: SK-OV-3
SF-539 = tested on: SF-539
COLO 205 = tested on: COLO 205
OVCAR-8 = tested on: OVCAR-8

In the case of C[N+](C)([O-])Cc1cc(-c2ccccc2)ccc1O, the GI50 (SF-295) is reported as > 100 µM (inactive), the GI50 (HOP-92) is reported as > 100 µM (inactive) and the GI50 (LOX IMVI) is reported as > 100 µM (inactive). The GI50 (Hs-578T) was 79.3 µM (inactive), the GI50 (EKVX) was > 100 µM (inactive) and the GI50 (NCI-H23) was > 100 µM (inactive). For the same molecule, the GI50 (MDA-MB-435) was > 100 µM (inactive), the GI50 (T47D) was > 100 µM (inactive) and the GI50 (OVCAR-5) was > 100 µM (inactive). The GI50 (A549) was > 100 µM (inactive), the GI50 (SF-268) was > 100 µM (inactive) and the GI50 (BT-549) was > 100 µM (inactive). The GI50 (KM12) was > 100 µM (inactive), the GI50 (SK-MEL-2) was > 100 µM (inactive) and the GI50 (SR) was 49.1 µM (inactive). For the same molecule, the GI50 (OVCAR-4) was > 100 µM (inactive), the GI50 (HOP-62) was > 100 µM (inactive) and the GI50 (UACC-257) was > 100 µM (inactive). For the same molecule, the GI50 (IGROV-1) was > 100 µM (inactive), the GI50 (MDA-MB-231) was > 100 µM (inactive) and the GI50 (SN12C) was > 100 µM (inactive). For the same molecule, the GI50 (SK-MEL-5) was > 100 µM (inactive), the GI50 (Malme-3M) was > 100 µM (inactive) and the GI50 (CAKI-1) was > 100 µM (inactive). For the same molecule, the GI50 (RXF 393) was > 100 µM (inactive), the GI50 (MOLT-4) was 52.5 µM (inactive) and the GI50 (PC-3) was > 100 µM (inactive). The GI50 (NCI/ADR-RES) was > 100 µM (inactive), the GI50 (SNB-75) was > 100 µM (inactive) and the GI50 (NCI-H226) was > 100 µM (inactive). The GI50 (K562) was > 100 µM (inactive), the GI50 (TK-10) was > 100 µM (inactive) and the GI50 (UACC-62) was > 100 µM (inactive). The GI50 (U-251) was > 100 µM (inactive), the GI50 (HT-29) was > 100 µM (inactive) and the GI50 (ACHN) was > 100 µM (inactive). For the same molecule, the GI50 (HCC 2998) was > 100 µM (inactive), the GI50 (SW-620) was > 100 µM (inactive) and the GI50 (UO-31) was > 100 µM (inactive). For the same molecule, the GI50 (M14) was > 100 µM (inactive), the GI50 (SNB-19) was > 100 µM (inactive) and the GI50 (786-0) was > 100 µM (inactive). The GI50 (NCI-H460) was 72.8 µM (inactive), the GI50 (NCI-H522) was > 100 µM (inactive) and the GI50 (HCT-116) was > 100 µM (inactive). The GI50 (HCT-15) was over 100 µM, the GI50 (OVCAR-3) was > 100 µM (inactive) and the GI50 (DU-145) was > 100 µM (inactive). The GI50 (A498) was > 100 µM (inactive) and the GI50 (SK-MEL-28) was > 100 µM (inactive).
In the case of Cc1ccccc1NC(=O)NC(Oc1ccccc1)(C(F)(F)F)C(F)(F)F, the GI50 (Hs-578T) is reported as > 100 µM (inactive), the GI50 (NCI-H23) is reported as > 100 µM (inactive) and the GI50 (MDA-MB-435) is reported as > 100 µM (inactive). The GI50 (T47D) was > 100 µM (inactive), the GI50 (OVCAR-5) was > 100 µM (inactive) and the GI50 (CCRF-CEM) was > 100 µM (inactive). The GI50 (SF-268) was > 100 µM (inactive), the GI50 (HL-60) was > 100 µM (inactive) and the GI50 (BT-549) was > 100 µM (inactive). The GI50 (SK-MEL-2) was > 100 µM (inactive), the GI50 (SR) was > 100 µM (inactive) and the GI50 (UACC-257) was > 100 µM (inactive). The GI50 (RPMI-8226) was > 100 µM (inactive), the GI50 (IGROV-1) was > 100 µM (inactive) and the GI50 (CAKI-1) was 22.4 µM (inactive). For the same molecule, the GI50 (RXF 393) was 73.1 µM (inactive), the GI50 (SK-OV-3) was > 100 µM (inactive) and the GI50 (MOLT-4) was > 100 µM (inactive). The GI50 (NCI/ADR-RES) was > 100 µM (inactive), the GI50 (SNB-75) was > 100 µM (inactive) and the GI50 (K562) was > 100 µM (inactive). For the same molecule, the GI50 (SF-539) was > 100 µM (inactive), the GI50 (U-251) was > 100 µM (inactive) and the GI50 (HT-29) was > 100 µM (inactive). For the same molecule, the GI50 (ACHN) was > 100 µM (inactive), the GI50 (HCC 2998) was > 100 µM (inactive) and the GI50 (UO-31) was > 100 µM (inactive). The GI50 (M14) was > 100 µM (inactive), the GI50 (SNB-19) was > 100 µM (inactive) and the GI50 (786-0) was > 100 µM (inactive). The GI50 (COLO 205) was > 100 µM (inactive), the GI50 (HCT-116) was > 100 µM (inactive) and the GI50 (A498) was > 100 µM (inactive). For the same molecule, the GI50 (SK-MEL-28) was > 100 µM (inactive).
C=CCON(C(=O)OC(C)(C)C)C(C)(C)C was tested, and the GI50 (SF-295) was > 100 µM (inactive), the GI50 (HOP-92) was > 100 µM (inactive) and the GI50 (LOX IMVI) was > 100 µM (inactive). For the same molecule, the GI50 (Hs-578T) was > 100 µM (inactive), the GI50 (EKVX) was > 100 µM (inactive) and the GI50 (NCI-H23) was > 100 µM (inactive). The GI50 (MDA-MB-435) was > 100 µM (inactive), the GI50 (T47D) was > 100 µM (inactive) and the GI50 (OVCAR-5) was > 100 µM (inactive). For the same molecule, the GI50 (CCRF-CEM) was > 100 µM (inactive), the GI50 (A549) was > 100 µM (inactive) and the GI50 (SF-268) was > 100 µM (inactive). The GI50 (HL-60) was > 100 µM (inactive), the GI50 (BT-549) was > 100 µM (inactive) and the GI50 (KM12) was > 100 µM (inactive). For the same molecule, the GI50 (OVCAR-8) was > 100 µM (inactive), the GI50 (SK-MEL-2) was > 100 µM (inactive) and the GI50 (SR) was > 100 µM (inactive). The GI50 (OVCAR-4) was 1.55 µM (inactive), the GI50 (HOP-62) was > 100 µM (inactive) and the GI50 (UACC-257) was > 100 µM (inactive). For the same molecule, the GI50 (RPMI-8226) was > 100 µM (inactive), the GI50 (IGROV-1) was > 100 µM (inactive) and the GI50 (MDA-MB-231) was > 100 µM (inactive). The GI50 (SK-MEL-5) was > 100 µM (inactive), the GI50 (Malme-3M) was > 100 µM (inactive) and the GI50 (CAKI-1) was > 100 µM (inactive). The GI50 (RXF 393) was > 100 µM (inactive), the GI50 (SK-OV-3) was > 100 µM (inactive) and the GI50 (MOLT-4) was > 100 µM (inactive). For the same molecule, the GI50 (PC-3) was > 100 µM (inactive), the GI50 (NCI/ADR-RES) was > 100 µM (inactive) and the GI50 (SNB-75) was > 100 µM (inactive). The GI50 (NCI-H226) was > 100 µM (inactive), the GI50 (K562) was > 100 µM (inactive) and the GI50 (TK-10) was > 100 µM (inactive). The GI50 (UACC-62) was > 100 µM (inactive), the GI50 (U-251) was > 100 µM (inactive) and the GI50 (HT-29) was > 100 µM (inactive). For the same molecule, the GI50 (ACHN) was > 100 µM (inactive), the GI50 (HCC 2998) was > 100 µM (inactive) and the GI50 (SW-620) was > 100 µM (inactive). The GI50 (UO-31) was > 100 µM (inactive), the GI50 (M14) was > 100 µM (inactive) and the GI50 (SNB-19) was > 100 µM (inactive). For the same molecule, the GI50 (786-0) was > 100 µM (inactive), the GI50 (NCI-H460) was > 100 µM (inactive) and the GI50 (COLO 205) was > 100 µM (inactive). The GI50 (NCI-H522) was > 100 µM (inactive), the GI50 (HCT-116) was > 100 µM (inactive) and the GI50 (HCT-15) was over 100 µM. The GI50 (OVCAR-3) was > 100 µM (inactive), the GI50 (DU-145) was > 100 µM (inactive) and the GI50 (A498) was > 100 µM (inactive). For the same molecule, the GI50 (SK-MEL-28) was > 100 µM (inactive).

Source: ChEMBL document CHEMBL1201862, “PubChem BioAssay data set” (2004)
